Measurements reported in publication PMC8529873, “Carbohydrate-Based NK1R Antagonists with Broad-Spectrum Anticancer Activity” (Journal of Medicinal Chemistry, 2021).
Read-outs that look alike come from different tables or passages of the source. Where no end group is shown, it is not given here.

Legend:
[1] = test system: A549 cells; test: Glycolysis inhibition: glucose consumption and lactate production; type: cell-based, human; settings: A549 cells exposed for 8 h
Experimental: Our next aim was to study the possible mechanisms involved in the selective anticancer activity of 14α. Because tumor cells rely on glycolysis for survival more than normal cells,[32] we evaluated if our compound behaved as a glycolysis inhibitor. Since glycolysis consumes glucose and produces lactate, we measured the concentrations of glucose and lactate in untreated A549 cells and in cells exposed for 8 h to 14α and to the known glycolysis inhibitor dichloroacetate.
Glycolysis inhibition was assessed by measuring concentrations of glucose ([…] of glycolysis) and lactate (final product of glycolysis) in control and treated cells. Briefly, 4 × 10^5 cells were seeded into 24-well plates. After 10 h, the medium of cells was renewed and drugs were added. Cells were exposed to the tested compounds for 8 h, and glucose and lactate concentrations were determined in cell supernatants using the Accutrend Plus analyzer together with Accutrend glucose strips and BM-Lactate strips (Roche Diagnostics). […] Results are expressed as a percentage of lactate production and percentage of glucose consumption in relation to untreated cells and are shown as the means ± SEM of two independent experiments.

[2] = test system: A549 cancer cells; test: Cytotoxicity of 14α in presence or absence of antioxidants (ROS involvement); type: cell-based, human; settings: A549, 48 h
Experimental: It is known that cancer cells have higher basal levels of reactive oxygen species (ROS) than normal cells, making them more sensitive to exogenous induction of ROS.[33] […] Therefore, we decided to study whether the generation of ROS was involved in the selective cytotoxic effect of 14α. A549 cancer cells were treated with 14α for 48 h in the presence or absence of three antioxidants: N-acetylcysteine (antioxidant activity through the glutathione system), catalase (hydrogen peroxide-degrading enzyme), and Mn(III) tetrakis(1-methyl-4-pyridyl)porphyrin pentachloride (MnTMPyP; superoxide anion scavenger).

[3] = test system: MRC-5 human nonmalignant lung cells; test: MTT cytotoxicity assay, 48 h, MRC-5 cells; type: cell-based
From the text: (§1) First, we evaluated the cytotoxicity of our carbohydrate derivatives against MRC-5 human nonmalignant lung cells and A549 human lung cancer cells using the 3-(4,5-dimethylthiazol-2-yl)-2,5-diphenyltetrazolium bromide (MTT) assay under the same experimental conditions.
Cell viability was estimated with the 3-(4,5-dimethylthiazol-2-yl)-2,5-diphenyltetrazolium bromide (MTT) assay or the resazurin assay. Both assays are redox-based colorimetric techniques based on the capability of viable cells to reduce the yellow product MTT or the blue reagent resazurin into a purple formazan dye or a pink-colored product, respectively. The number of live cells is directly proportional to the amount of the final product created. Exponentially growing cells were seeded in 96-well plates and were allowed to grow during 24 h. […]
(§2) Then, 80 μL of 20% sodium dodecyl sulfate (SDS) in 20 mM HCl was added to dissolve the insoluble purple formazan product and plates were incubated for 15 h at 37 °C. The optical density (OD) of each well was measured at 540 nm with a multiwell plate spectrophotometer reader to quantify cell survivals.
In both assays, results were expressed as the percentage of cell viability in relation to untreated cells (controls). All data were averaged from two to five independent experiments and were expressed as the means ± standard error of the mean (SEM). […]

[4] = test system: A549 human lung cancer cells; test: MTT cytotoxicity assay, 48 h, A549 cells; type: cell-based; settings: for IC50: read-out: IC50 (mean ± SEM) A549 (cancer)
From the text: as §1
(§3) Cell viability was estimated with the 3-(4,5-dimethylthiazol-2-yl)-2,5-diphenyltetrazolium bromide (MTT) assay or the resazurin assay. Both assays are redox-based colorimetric techniques based on the capability of viable cells to reduce the yellow product MTT or the blue reagent resazurin into a purple formazan dye or a pink-colored product, respectively. The number of live cells is directly proportional to the amount of the final product created. Exponentially growing cells were seeded in 96-well plates and were allowed to grow during 24 h. The cells were then treated with several concentrations of the tested compounds for 48–96 h (the incubation periods are specified in the figures and table legends) before measuring the cell viability using the MTT assay or the resazurin assay.
as §2
In both assays, results were expressed as the percentage of cell viability in relation to untreated cells (controls). All data were averaged from two to five independent experiments and were expressed as the means ± standard error of the mean (SEM). For statistical analysis, the t-test (paired, two-tailed) was used. A p value >0.05 is not considered statistically significant and is not represented by any symbol, a p value <0.05 is considered statistically significant and is indicated with an asterisk (*), a p value <0.01 is indicated with a double asterisk (**), and a p value <0.001 is indicated with a triple asterisk (***).

[5] = test system: HaCaT (human skin normal); test: Resazurin cell viability assay, 96 h, HaCaT; type: cell-based; settings: read-out: IC50 (mean ± SEM) HaCaT
Experimental: Thirteen human cancer cells lines and one human nonmalignant cell line were treated with 14α for 96 h. We used longer exposure times because some of these cell lines have long cell cycles (24–48 h); this longer exposure time allows the cells to pass several cycles in the presence of 14α. Cell viability was estimated with the resazurin assay. HaCaT human skin nonmalignant cells were used to study selectivity; these cells are derived from normal adult tissue and have a division rate similar to that of cancer cells. One key limitation of most anticancer drugs is that, in addition to targeting cancer cells, they also target nonmalignant cells with similar division rates. […] These cell lines were at least 3 times more sensitive than the normal cell line to 14α treatment. HepG2 (hepatocarcinoma) and KATO III (gastric cancer) were at least 9-fold more vulnerable to 14α than HaCaT nonmalignant cells.
Cell viability was estimated with the 3-(4,5-dimethylthiazol-2-yl)-2,5-diphenyltetrazolium bromide (MTT) assay or the resazurin assay. […]
For the resazurin assay, after treatment, the medium was removed and 150 μL of resazurin solution (20 μg/mL in medium) was added to each well for 3–6 h. The OD of each well was measured at 540 and 620 nm on a multiwell plate spectrophotometer reader.

[6] = test system: MDA-MB-231 (triple-negative breast cancer); test: Resazurin cell viability assay, 96 h, MDA-MB-231; type: cell-based, human; settings: IC50 HaCaT / IC50 MDA-MB-231
From the text: (§4) Cell viability was estimated with the resazurin assay. HaCaT human skin nonmalignant cells were used to study selectivity; these cells are derived from normal adult tissue and have a division rate similar to that of cancer cells.
as §3
(§5) The OD of each well was measured at 540 and 620 nm on a multiwell plate spectrophotometer reader.

[7] = test system: Sk-Br-3 (HER2-positive breast cancer); test: Resazurin cell viability assay, 96 h, Sk-Br-3; type: cell-based, human
From the text: as §4, §3, §5

[8] = test system: HNO97 (tongue cancer); test: Resazurin cell viability assay, 96 h, HNO97; type: cell-based, human
From the text: as §4, §3, §5

[9] = test system: MeWo (melanoma; BRAF WT); test: Resazurin cell viability assay, 96 h, MeWo; type: cell-based, human
From the text: as §4, §3, §5

[10] = test system: PC-3 (prostate cancer); test: Resazurin cell viability assay, 96 h, PC-3; type: cell-based, human
From the text: as §4, §3, §5

[11] = test system: HepG2 (hepatocarcinoma); test: Resazurin cell viability assay, 96 h, HepG2; type: cell-based, human
From the text: as §4, §3, §5

[12] = test system: KATO III (gastric cancer); test: Resazurin cell viability assay, 96 h, KATO III; type: cell-based, human
From the text: as §4, §3, §5

[13] = test system: HT29 (colorectal cancer); test: Resazurin cell viability assay, 96 h, HT29; type: cell-based, human
From the text: as §4, §3, §5

[14] = test system: T24 (bladder cancer); test: Resazurin cell viability assay, 96 h, T24; type: cell-based, human
From the text: as §4, §3, §5

[15] = test system: Sk-OV-3 (ovarian cancer); test: Resazurin cell viability assay, 96 h, Sk-OV-3; type: cell-based, human; settings: IC50 HaCaT / IC50 Sk-OV-3
From the text: as §4, §3, §5

[16] = test system: GAMG (glioblastoma); test: Resazurin cell viability assay, 96 h, GAMG; type: cell-based, human
From the text: as §4, §3, §5

[17] = test system: A64-CLS (submaxillary gland adenoma); test: Resazurin cell viability assay, 96 h, A64-CLS; type: cell-based, human
From the text: as §4, §3, §5

[18] = test system: AN3Ca (endometrial adenocarcinoma); test: Resazurin cell viability assay, 96 h, AN3Ca; type: cell-based, human
From the text: as §4, §3, §5

[19] = test system: A549 cells; test: Cell proliferation after SP, Resazurin assay, 48 h; type: cell-based, human; settings: SP 2.5 - 200 nM
Experimental: Competition Experiments of Cytotoxic effect of in presence of SP. 14α
First, we treated A549 cells with several concentrations of SP (2.5 - 200 nM) for 48 h and we evaluated cell proliferation with the Resazurin assay. Although it has been reported that A549 […]
of SP. The highest SP concentration tested (200 nM) was added 1 h before 32 µM of 14α or Cisplatin. After a 48 h treatment period, the cell viability was determined with the Resazurin […]
Figure S-4. Evaluation of cytotoxic activity of 14α derivative and Cisplatin on A549 lung cancer cells and HaCaT normal cells in presence of SP. Results are representative of at least three independent experiments. Values are expressed in mean with SEM.
1 O'Connor, T.M.; O'Connell, J.; O'Brien, D.I.; Bennett, M.W.; Goode, T.; Burke, L.; Bredin, C.P.; Shanahan,
(1 picture or pasted object on this page, not shown here)

C[C@@H](O[C@H]1O[C@@H]2CO[C@@H](c3ccccc3)O[C@@H]2[C@H](O)[C@H]1OCc1ccc(F)cc1)c1cc(C(F)(F)F)cc(C(F)(F)F)c1 [14α, (R)-{1-[3,5-Bis-(trifluoromethyl)phenyl]ethyl} (R)-(4,6-O-Benzylidene)-2-O-p-fluorobenzyl-α-D-galactopyranoside]
glucose consumption and lactate production (glycolysis inhibition) [1]: did not reduce glucose consumption or lactate production | effect of antioxidants (N-acetylcysteine, catalase, MnTMPyP) on cytotoxicity [2]: None of these three antioxidants reduced the cytotoxicity

C[C@@H](O[C@H]1OCCN(Cc2n[nH]c(=O)[nH]2)[C@H]1c1ccc(F)cc1)c1cc(C(F)(F)F)cc(C(F)(F)F)c1 [Aprepitant]
IC50 ([3]; Homo sapiens, MRC5, read-out: IC50 (mean ± SEM) MRC-5 (normal)): 28.9 ± 6.8 µM | IC50 ([4]; Homo sapiens, A549, MTT assay): 18.3 ± 3.4 µM

N.N.[Cl][Pt][Cl] [Cisplatin]
IC50 [5]: 2.1 ± 0.7 µM | selectivity index (vs HaCaT; mean ± SEM) MDA-MB-231 [6]: 0.3 ± 0.1 | IC50 ([3]; read-out: IC50 (mean ± SEM) MRC-5 (normal)): 99.2 ± 37 µM | selectivity index (vs HaCaT; mean ± SEM) Sk-Br-3 ([7]; IC50 HaCaT / IC50 Sk-Br-3, Resazurin): 0.5 ± 0.1 | IC50 ([7]; Resazurin assay, read-out: IC50 (mean ± SEM) Sk-Br-3): 4.3 ± 0.9 µM | selectivity index (vs HaCaT; mean ± SEM) HNO97 ([8]; IC50 HaCaT / IC50 HNO97, Resazurin): 0.8 ± 0.1 | IC50 ([8]; Resazurin assay, read-out: IC50 (mean ± SEM) HNO97): 2.5 ± 0.4 µM | IC50 ([4]; MTT assay): 13.5 ± 2.7 µM | selectivity index (IC50 MRC-5 / IC50 A549) ([4]; mean of indices of each individual experiment, MTT): 8.6 ± 3.9 | selectivity index (vs HaCaT; mean ± SEM) MeWo ([9]; IC50 HaCaT / IC50 MeWo, Resazurin): 1.0 ± 0.1 | IC50 ([9]; Resazurin assay, read-out: IC50 (mean ± SEM) MeWo): 2.2 ± 1.1 µM | selectivity index (vs HaCaT; mean ± SEM) PC-3 ([10]; IC50 HaCaT / IC50 PC-3, Resazurin): 0.7 ± 0.2 | IC50 ([10]; Resazurin assay, read-out: IC50 (mean ± SEM) PC-3): 3.1 ± 0.2 µM | selectivity index (vs HaCaT; mean ± SEM) HepG2 ([11]; IC50 HaCaT / IC50 HepG2, Resazurin): 1.2 ± 0.2 | IC50 ([11]; Resazurin assay, read-out: IC50 (mean ± SEM) HepG2): 1.8 ± 0.2 µM | selectivity index (vs HaCaT; mean ± SEM) KATO III ([12]; IC50 HaCaT / IC50 KATO III, Resazurin): 1.2 ± 0.5 | IC50 ([12]; Resazurin assay, read-out: IC50 (mean ± SEM) KATO III): 1.8 ± 0.2 µM | selectivity index (vs HaCaT; mean ± SEM) HT29 ([13]; IC50 HaCaT / IC50 HT29, Resazurin): 0.4 ± 0.1 | IC50 ([13]; Resazurin assay, read-out: IC50 (mean ± SEM) HT29): 4.9 ± 0.8 µM | selectivity index (vs HaCaT; mean ± SEM) T24 ([14]; IC50 HaCaT / IC50 T24, Resazurin): 1.3 ± 0.0 | IC50 ([14]; Resazurin assay, read-out: IC50 (mean ± SEM) T24): 1.6 ± 0.5 µM | selectivity index (vs HaCaT; mean ± SEM) Sk-OV-3 [15]: 0.5 ± 0.2 | selectivity index (vs HaCaT; mean ± SEM) GAMG ([16]; IC50 HaCaT / IC50 GAMG, Resazurin): 0.7 ± 0.0 | IC50 ([16]; Resazurin assay, read-out: IC50 (mean ± SEM) GAMG): 3.2 ± 0.9 µM | selectivity index (vs HaCaT; mean ± SEM) A64-CLS ([17]; IC50 HaCaT / IC50 A64-CLS, Resazurin): 0.5 ± 0.0 | IC50 ([17]; Resazurin assay, read-out: IC50 (mean ± SEM) A64-CLS): 4.5 ± 1.2 µM | selectivity index (vs HaCaT; mean ± SEM) AN3Ca ([18]; IC50 HaCaT / IC50 AN3Ca, Resazurin): 2.1 ± 1.2 | IC50 ([18]; Resazurin assay, read-out: IC50 (mean ± SEM) AN3Ca): 1.8 ± 1.4 µM

substance P (RPKPQQFFGLM-NH2; ends and bridges not checked; also: 125I label, position not given here) [SP]
cell proliferation after addition of SP [19]: did not observe any increase in cell proliferation
